# Measurements from patent US9868746B2, “Substituted 5-aminothieno[2,3-C]pyridazine-6-carboxamide analogs as positive allosteric modulators of the muscarinic acetylcholine receptor M4” (Vanderbilt University, priority 2012, dated 2018).
# Where two headings read alike, the source gives them in different places.
# Biological target: T1, mAChR M4 (Homo sapiens, UniProt P08173)
# T1 construct: expressed in transfected cells; host or cells: CHO-K1 cells stably transfected with M4 cDNA and chimeric G-protein Gqi5
# T1 sequence (P08173 1-479): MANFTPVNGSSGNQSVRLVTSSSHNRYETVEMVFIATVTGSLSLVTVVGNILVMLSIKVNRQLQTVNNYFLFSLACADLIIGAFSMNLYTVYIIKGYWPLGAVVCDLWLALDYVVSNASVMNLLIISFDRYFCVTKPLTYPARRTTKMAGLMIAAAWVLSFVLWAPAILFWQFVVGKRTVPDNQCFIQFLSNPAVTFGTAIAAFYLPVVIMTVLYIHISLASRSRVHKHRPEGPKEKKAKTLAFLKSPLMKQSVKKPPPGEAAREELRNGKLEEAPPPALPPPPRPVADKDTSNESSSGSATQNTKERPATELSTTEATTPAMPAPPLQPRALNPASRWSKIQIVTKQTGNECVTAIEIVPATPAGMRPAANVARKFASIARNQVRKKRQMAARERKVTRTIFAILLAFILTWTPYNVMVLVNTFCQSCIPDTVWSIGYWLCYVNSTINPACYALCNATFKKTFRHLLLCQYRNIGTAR
# Experiment: mAChR M4 cell-based functional assay (calcium mobilization, potentiation of EC20 acetylcholine response)
# Details: for Emax at 30 µM: % ACh maximum at 30 μM
# [1] = mAChR M4 cell-based functional assay, >10,000 estimated for low potency compounds without plateau, read-out: EC50
Structure (SMILES),Emax at 30 µM,EC50 [1],EC50 (EC50 (nM))
COc1ccc(CNC(=O)c2sc3nnc(C)c(C)c3c2N)cc1 [Example B16],99%,250 nM,–
CCCCC(=O)N1CC2CN(C(=O)c3sc4nnc(C)c(C)c4c3N)CC2C1 (centres unmarked) [Example B389],47%,1300 nM,–
Cc1nnc2sc(C(=O)N3CC(Br)(c4ccccc4)C3)c(N)c2c1C [Example B191],45%,2100 nM,–
COc1ccc(CNC(=O)c2sc3nnc(C)c(C)c3c2N)cc1C(F)(F)F [Example B171],71%,23 nM,–
Cc1nnc2sc(C(=O)NCc3ccc([S+]([O-])C(F)F)c(F)c3)c(N)c2c1C (centres unmarked) [Example B465],61%,15 nM,–
Cc1nnc2sc(C(=O)N3CC(NCCC(C)C)C3)c(N)c2c1C [Example B63],41%,> 10000 nM,–
Cc1nnc2sc(C(=O)NCc3cccc(F)c3F)c(N)c2c1C [Example B15],97%,100 nM,–
Cc1nnc2sc(C(=O)NC3CCN(c4ccc(OC(F)(F)F)cc4)C3)c(N)c2c1C (centres unmarked) [Example B273],71%,230 nM,–
Cc1nnc2sc(C(=O)NCc3ccc4c(c3)CCO4)c(N)c2c1C [Example B27],76%,42 nM,–
Cc1nnc2sc(C(=O)NCc3ccc(S(=O)(=O)N(C)C)cc3)c(N)c2c1C [Example B450],65%,65 nM,–
Cc1nnc2sc(C(=O)N3CC(NCc4ccc(F)cc4)C3)c(N)c2c1C [Example B59],56%,4100 nM,–
Cc1nnc2sc(C(=O)NCc3ccc(S(=O)(=O)C(F)F)cc3)c(N)c2c1C [Example B117],66%,–,18 nM
Cc1nnc2sc(C(=O)NCc3ccc(-c4cc(C)c5[nH]ncc5c4)cc3)c(N)c2c1C [Example B474],82%,460 nM,–
COc1ccc(CNC(=O)c2sc3nnc(-c4ccccc4)c(-c4ccccc4)c3c2N)cc1 [Example B40],47%,2700 nM,–
COCCOCCNC(=O)c1sc2nnc(C)c(C)c2c1N [Example B199],52%,> 10000 nM,–
Cc1nnc2sc(C(=O)N3CC(F)(CCC4OCCCO4)C3)c(N)c2c1C [Example B291],46%,> 10000 nM,–
Cc1nnc2sc(C(=O)NCc3ccccn3)c(N)c2c1C [Example B13],58%,1000 nM,–
Cc1nnc2sc(C(=O)Nc3nccs3)c(N)c2c1C [Example B70],37%,1200 nM,–
Cc1nnc2sc(C(=O)N3CCC(C4CCCCC4)C3)c(N)c2c1C (centres unmarked) [Example B379],45%,3900 nM,–
Cc1nnc2sc(C(=O)N3CC4CN(S(C)(=O)=O)CC4C3)c(N)c2c1C (centres unmarked) [Example B277],56%,> 10000 nM,–
Cc1nnc2sc(C(=O)N3CC(Sc4ccc(F)c(F)c4)C3)c(N)c2c1C [Example B414],63%,340 nM,–
Cc1nnc2sc(C(=O)NC3CN(S(=O)(=O)c4ccco4)C3)c(N)c2c1C [Example B99],65%,160 nM,–

Structure (SMILES),Emax at 30 µM,EC50 [1],EC50 (EC50 (nM))
Cc1nnc2sc(C(=O)NCC3CCS(=O)(=O)C3)c(N)c2c1C (centres unmarked) [Example B148],50%,> 10000 nM,–
Cc1nnc2sc(C(=O)NCCNS(=O)(=O)c3ccc(F)cc3)c(N)c2c1C [Example B353],57%,3400 nM,–
Cc1nnc2sc(C(=O)NC3CN(C(=O)c4ccc5c(c4)OCO5)C3)c(N)c2c1C [Example B133],74%,76 nM,–
Cc1nnc2sc(C(=O)NCc3ccnc(C#N)c3)c(N)c2c1C [Example B467],69%,1200 nM,–
COC1(C2CCCCC2)CN(C(=O)c2sc3nnc(C)c(C)c3c2N)C1 [Example B304],43%,1100 nM,–
Cc1nnc2sc(C(=O)NCc3ccc4[nH]c(C)c(C)c4c3)c(N)c2c1C [Example B250],75%,190 nM,–
Cc1nnc2sc(C(=O)NCc3ccc(N4CCCC4=O)cc3)c(N)c2c1C [Example B238],68%,130 nM,–
Cc1nnc2sc(C(=O)NC3CN(C(=O)C4CCCCC4)C3)c(N)c2c1C [Example B123],97%,130 nM,–
"Cc1nnc2sc(C(=O)NCc3ccc([S+]([O-])C(F)F)cc3)c(N)c2c1C (single isomer, unassigned) [Example B491]",63%,120 nM,–
Cc1nnc2sc(C(=O)NCc3ccc(-c4ccc5nccnc5c4)cc3)c(N)c2c1C [Example B496],66%,250 nM,–
Cc1ccc(S(=O)(=O)N2CCCN(C(=O)c3sc4nnc(C)c(C)c4c3N)CC2)cc1 [Example B114],48%,1600 nM,–
COc1ccc(CNC2CN(C(=O)c3sc4nnc(C)c(C)c4c3N)C2)cc1 [Example B61],55%,4600 nM,–
CCCOC(=O)NC1CN(C(=O)c2sc3nnc(C)c(C)c3c2N)C1 [Example B178],60%,1700 nM,–
Nc1c(C(=O)NC2CC2)sc2nnccc12 [Example B1],40%,> 10000 nM,–
Cc1nnc2sc(C(=O)NC3CCN(S(=O)(=O)c4cccc(F)c4)C3)c(N)c2c1C (centres unmarked) [Example B253],71%,390 nM,–
Cc1nnc2sc(C(=O)NC3CN(C(=O)Oc4cc(F)cc(F)c4)C3)c(N)c2c1C [Example B370],61%,10 nM,–
Cc1nnc2sc(C(=O)NC3CCN(c4ccc(F)cc4)C3)c(N)c2c1C (centres unmarked) [Example B346],79%,170 nM,–
Cc1nnc2sc(C(=O)NC3CN(C(=O)C4CC4)C3)c(N)c2c1C [Example B135],73%,230 nM,–
Cc1nnc2sc(C(=O)N3CC(S(C)(=O)=O)C3)c(N)c2c1C [Example B406],54%,1700 nM,–
Cc1nnc2sc(C(=O)NC3CCN(S(C)(=O)=O)C3)c(N)c2c1C (centres unmarked) [Example B252],83%,1700 nM,–
Cc1nnc2sc(C(=O)NCc3ccc4c(ccn4C)c3)c(N)c2c1C [Example B196],69%,61 nM,–
Cc1nnc2sc(C(=O)N3CCC(NC(=O)OCc4ccccc4)C3)c(N)c2c1C (centres unmarked) [Example B220],67%,830 nM,–

Structure (SMILES),Emax at 30 µM,EC50 [1],EC50 (EC50 (nM))
CCCCCC(=O)NC1CCN(C(=O)c2sc3nnc(C)c(C)c3c2N)C1 (centres unmarked) [Example B218],61%,5000 nM,–
Cc1ccc(S(=O)(=O)NC2CCN(C(=O)c3sc4nnc(C)c(C)c4c3N)C2)s1 (centres unmarked) [Example B257],62%,1100 nM,–
Cc1nnc2sc(C(=O)N3CCC(O)(c4ccccc4)C3)c(N)c2c1C (centres unmarked) [Example B279],48%,4300 nM,–
Cc1nnc2sc(C(=O)NCc3cc(F)ccc3F)c(N)c2c1C [Example B5],86%,180 nM,–
CCc1ccc(CNC(=O)c2sc3nnc(C)c(C)c3c2N)cc1 [Example B395],71%,47 nM,–
Cc1nnc2sc(C(=O)NCCc3ccccn3)c(N)c2c1C [Example B94],47%,5000 nM,–
COc1ccc(S(=O)(=O)N2CC(NC(=O)c3sc4nnc(C)c(C)c4c3N)C2)cc1 [Example B144],87%,140 nM,–
Cc1nnc2sc(C(=O)NCc3ccc(F)cn3)c(N)c2c1C [Example B509],59%,1400 nM,–
Cc1nnc2sc(C(=O)NCc3ccc(S(C)(=O)=O)cc3)c(N)c2c1C [Example B23],83%,450 nM,–
Cc1nnc2sc(C(=O)N3CCC(NC(=O)N4CCOCC4)C3)c(N)c2c1C (centres unmarked) [Example B201],56%,> 10000 nM,–
Cc1nnc2sc(C(=O)N3CC4CN(c5ccc(C#N)cn5)CC4C3)c(N)c2c1C (centres unmarked) [Example B438],45%,170 nM,–
Cc1cc(NC(=O)c2sc3nnc(C)c(C)c3c2N)ccn1 [Example B88],43%,400 nM,–
Cc1nnc2sc(C(=O)N3CC4(C3)CN(C(=O)C3CCCC3)C4)c(N)c2c1C [Example B402],46%,3300 nM,–
Cc1cncc(-c2ccc(CNC(=O)c3sc4nnc(C)c(C)c4c3N)cc2)c1 [Example B499],71%,200 nM,–
Cc1nnc2sc(C(=O)NC3CN(C(=O)c4ccccc4F)C3)c(N)c2c1C [Example B396],70%,200 nM,–
Cc1nnc2sc(C(=O)N3CC(F)(c4ccc(-c5ccncc5)cc4)C3)c(N)c2c1C [Example B318],35%,290 nM,–
Cc1nnc2sc(C(=O)NCc3ccc(O)c(F)c3)c(N)c2c1C [Example B158],66%,28 nM,–
Cc1nnc2sc(C(=O)N3CC(NC(=O)Oc4ccccc4)(c4ccccc4)C3)c(N)c2c1C [Example B309],48%,> 10000 nM,–
Cc1nnc2sc(C(=O)NCCN(C)S(C)(=O)=O)c(N)c2c1C [Example B344],41%,> 10000 nM,–
Cc1nnc2sc(C(=O)N3CC(NC(=O)C4CC4)C3)c(N)c2c1C [Example B166],41%,3100 nM,–
